Measurements from patent publication US7731985B2, “4-aminopyrimidines and their use for the antimicrobial treatment of surfaces” (Ciba Specialty Chemicals Corporation, priority 2002, dated 2010).
Marks after values point to notes of the source that are not given here.

Legend:
Assay type in all cases: cell-based
[1] = tested on: Escherichia coli ATCC 10536; assay: "Microbicidal Activity" suspension test CG 161/EN1040 (Example 12); conditions: E. coli
Protocol: (§1) Bacteria are incubated overnight in CASO broth and adjusted to an organism count of 1-5×10^5 CFU/ml using 0.85% sodium chloride solution. The test substances are pre-pipetted into microtitre plates in amounts of 8 μl per well. The adjusted test organism suspensions are added in amounts of 192 μl per well to the test substances and mixed. After defined contact times, the test batches are mixed, an aliquot is withdrawn and diluted in several steps in a dilution series of 1:10 in a suitable inactivation medium. The test plates are incubated for 24 hours at 37° C. After incubation, the growth is determined on the basis of the turbidity of the test batches (optical density) at 620 nm in a microplate reader. […] One microtitre plate is used for each test organism. All the substances are tested in duplicate.

[2] = tested on: Actynomyces viscosus ATCC 43146; assay: as above; conditions: A. viscosus
Protocol: as §1

[3] = tested on: Staphylococcus aureus ATCC 6538; assay: as above; conditions: S. aureus
Protocol: as §1

[4] = tested on: Klebsiella pneumoniae ATCC 4352; assay: Agar incorporation test CG128e (Example 11); conditions: 24 hours at 37° C.
Protocol: (§2) [table] 0.3 ml of each dilution step is mixed with 15 ml of nutrient medium while the latter is still liquid. After the nutrient medium has solidified, 10 μl of each of the following organism dilutions of the test strains in 0.85% NaCl solution are spotted onto the agar medium: [table] The plates are incubated at 37° C. for 24 hours (A. niger at 28° C. for 3 days) and then the highest dilution (lowest concentration) of the test substance at which growth is just no longer discernible (corresponds to the MIC) is determined.

[5] = tested on: Propionibacterium acnes (*) ATCC 6919; assay: Agar incorporation test CG128e (Example 11); conditions: 24 hours at 37° C.; organism marked *
Protocol: as §2

[6] = tested on: Staphylococcus aureus ATCC 9144; assay: Agar incorporation test CG128e (Example 11); conditions: 24 hours at 37° C.
Protocol: as §2

[7] = tested on: Salmonella choleraesuis ATCC 9184; assay: Agar incorporation test CG128e (Example 11); conditions: 24 hours at 37° C.
Protocol: as §2

[8] = tested on: Staphylococcus epidermidis ATCC 12228; assay: Agar incorporation test CG128e (Example 11); conditions: 24 hours at 37° C.
Protocol: as §2

[9] = tested on: Corynebacterium xerosis* ATCC 373; assay: Agar incorporation test CG128e (Example 11); conditions: 24 hours at 37° C.; organism marked *
Protocol: as §2

[10] = tested on: Escherichia coli ATCC 10536; assay: Agar incorporation test CG128e (Example 11); conditions: 24 hours at 37° C.
Protocol: as §2

[11] = tested on: Proteus vulgaris ATCC 6896; assay: Agar incorporation test CG128e (Example 11); conditions: 24 hours at 37° C.
Protocol: as §2

[12] = tested on: C. minutissimum ATCC 23348; assay: Agar incorporation test CG128e (Example 11); conditions: 24 hours at 37° C.
Protocol: as §2

[13] = tested on: Candida albicans ATCC 10231; assay: Agar incorporation test CG128e (Example 11); conditions: 24 hours at 37° C.
Protocol: as §2

[14] = tested on: Staphylococcus aureus ATCC 6538; assay: Agar incorporation test CG128e (Example 11); conditions: 24 hours at 37° C.
Protocol: as §2

[15] = tested on: Aspergillus niger ATCC 6275; assay: Agar incorporation test CG128e (Example 11); conditions: 28° C. for 3 days
Protocol: as §2

[16] = tested on: Escherichia coli NCTC 8196; assay: Agar incorporation test CG128e (Example 11); conditions: 24 hours at 37° C.
Protocol: as §2

[17] = tested on: Pseudomonas aeruginosa ATCC 15442; assay: Agar incorporation test CG128e (Example 11); conditions: 24 hours at 37° C.
Protocol: as §2

[18] = contact time 5 min, test substance 0.12%
[19] = contact time 5 min, test substance 120 ppm
[20] = contact time 30 min, test substance 0.12%
[21] = contact time 30 min, test substance 120 ppm

| Structure (SMILES) | log reduction [1, 19] [log] | log reduction [1, 21] [log] | log reduction [2, 18] [log] | log reduction [2, 19] [log] | log reduction [2, 20] [log] | log reduction [2, 21] [log] | MIC (agar incorporation) Klebsiella pneumoniae ATCC 4352 [4] | MIC (agar incorporation) Propionibacterium acnes (*) ATCC 6919 [5] | MIC (agar incorporation) Staphylococcus aureus ATCC 9144 [6] | MIC (agar incorporation) Salmonella choleraesuis ATCC 9184 [7] | MIC (agar incorporation) Staphylococcus epidermidis ATCC 12228 [8] | MIC (agar incorporation) Corynebacterium xerosis* ATCC 373 [9] | MIC (agar incorporation) Escherichia coli ATCC 10536 [10] | MIC (agar incorporation) Proteus vulgaris ATCC 6896 [11] | MIC (agar incorporation) C. minutissimum ATCC 23348 [12] | MIC (agar incorporation) Candida albicans ATCC 10231 [13] | MIC (agar incorporation) Staphylococcus aureus ATCC 6538 [14] | MIC (agar incorporation) Aspergillus niger ATCC 6275 [15] | MIC (agar incorporation) Escherichia coli NCTC 8196 [16] | MIC (agar incorporation) Pseudomonas aeruginosa ATCC 15442 [17] | also measured |
| --- | --- | --- | --- | --- | --- | --- | --- | --- | --- | --- | --- | --- | --- | --- | --- | --- | --- | --- | --- | --- | --- |
| CCCCCCCCCCCCNc1cc(C)nc(C(C)C)n1 [Compound of formula 93, 4-dodecylamino-2-isopropyl-6-methylpyrimidine] | >5 | >5 | >5 | 2 | >5 | 4 | 60 | 3.75 (*) | 3.75 | 120 | 3.75 | 1.88* | 120 | >120 | 1.88 | >120 | 3.75 | >120 | 120 | >120 | log reduction [1, 18]: >5 log; log reduction [1, 20]: >5 log; log reduction [3, 18]: >5 log; log reduction [3, 19]: 1.4 log; log reduction [3, 20]: >5 log; log reduction [3, 21]: 3.8 log |
| CCCCCCCCCCCCNc1cc(C)nc(C)n1 [Compound of formula 89] | 4.6 | >5 | 4.9 | 3.9 | >5 | 4.3 | >120 | 3.75 | 7.5 | >120 | 120 | 3.75 | >120 | 60 | 3.75 | >120 | 7.5 | >120 | 120 | >120 | log reduction [3, 19]: <1 log; log reduction [3, 21]: 1.7 log |
| CCCCCCCCCCCCNc1cc(C)nc(-c2cccnc2)n1 [Compound of formula 36] |  |  |  |  |  |  | 60** | 60 | 120 | >120 | >120 | 60 | >120 | >120 | 30 | >120 | 120 | >120 | 120 | >120 |  |
